Experimental data taken from ChEMBL document CHEMBL1909046, “DrugMatrix in vitro pharmacology data”.

Legend:
[1] = DRUGMATRIX: Sodium/nucleoside co-transporter radioligand binding (ligand: nitrobenzylthioinosine); assay type: cell membranes, Cavia porcellus, Dunkin-Hartley, Cerebral cortex, Membrane; conditions: Not Active = under 50% inhibition at 10 µM
[2] = DRUGMATRIX: Phosphodiesterase PDE3 enzyme inhibition (substrate: [3H]cAMP + cAMP); assay type: tissue-based, Homo sapiens; conditions: platelet, Not Active = under 50% inhibition at 10 µM
[3] = DRUGMATRIX: Glutamate, AMPA radioligand binding (ligand: [3H] AMPA); assay type: cell membranes, Rattus norvegicus, Wistar, Cerebral cortex, Membrane; conditions: Not Active = under 50% inhibition at 10 µM
B2 bradykinin receptor = molecular target: T1, B2 bradykinin receptor (Homo sapiens, UniProt P30411); assay type: cell membranes, Membrane; conditions: chem-1; note: in other assays of this panel Not Active means under 50% inhibition at 10 µM
T1 sequence (P30411 whole entry): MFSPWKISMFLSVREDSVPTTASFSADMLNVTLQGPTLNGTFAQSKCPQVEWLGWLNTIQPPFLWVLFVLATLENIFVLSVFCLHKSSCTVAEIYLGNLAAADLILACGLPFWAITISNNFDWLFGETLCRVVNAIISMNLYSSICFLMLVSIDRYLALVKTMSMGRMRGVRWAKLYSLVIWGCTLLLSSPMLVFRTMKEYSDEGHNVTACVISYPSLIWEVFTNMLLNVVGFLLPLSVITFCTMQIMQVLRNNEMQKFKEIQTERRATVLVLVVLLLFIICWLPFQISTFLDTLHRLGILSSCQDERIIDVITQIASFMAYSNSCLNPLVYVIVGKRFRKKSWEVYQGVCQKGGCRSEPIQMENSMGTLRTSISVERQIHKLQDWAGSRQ

[4] = DRUGMATRIX: GABAA, Chloride Channel, TBOB radioligand binding (ligand: [3H] TBOB); assay type: cell membranes, Rattus norvegicus, Wistar, Cerebral cortex, Membrane; conditions: Not Active = under 50% inhibition at 10 µM
Caspase-1 = molecular target: T2, Caspase-1 (Homo sapiens, UniProt P29466); parameters: species or system Escherichia coli;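 note: Caspase-1 enzyme inhibition assay with a peptide substrate; in other assays of this panel Not Active means under 50% inhibition at 10 µM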
T2 sequence (P29466 whole entry): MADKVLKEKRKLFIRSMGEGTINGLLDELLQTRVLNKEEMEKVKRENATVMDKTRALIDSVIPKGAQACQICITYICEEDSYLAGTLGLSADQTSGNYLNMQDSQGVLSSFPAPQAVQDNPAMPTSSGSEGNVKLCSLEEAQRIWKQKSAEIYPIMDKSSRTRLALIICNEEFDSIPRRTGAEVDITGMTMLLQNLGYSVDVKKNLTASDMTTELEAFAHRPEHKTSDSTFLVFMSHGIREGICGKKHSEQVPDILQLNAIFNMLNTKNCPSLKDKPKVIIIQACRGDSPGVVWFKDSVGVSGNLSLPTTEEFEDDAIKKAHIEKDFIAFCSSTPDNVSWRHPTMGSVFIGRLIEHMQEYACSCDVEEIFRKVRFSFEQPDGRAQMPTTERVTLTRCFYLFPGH

[5] = molecular target: Epidermal growth factor receptor (Homo sapiens, UniProt P00533); test: DRUGMATRIX: Protein Tyrosine Kinase, EGF Receptor enzyme inhibition (substrate: Poly(Glu:Tyr)); assay type: cell-based, Insect cells; conditions: insect cells; Not Active = under 50% inhibition at 10 µM
Cannabinoid receptor 1 = Cannabinoid receptor 1 (Homo sapiens, UniProt P21554); assay type: cell membranes, Chem-1, Membrane; note: in other assays of this panel Not Active means under 50% inhibition at 10 µM
[6] = molecular target: T3, Angiotensin-converting enzyme (Oryctolagus cuniculus, UniProt P12822); assay type: tissue-based, Lung;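 note: enzymatic inhibition of angiotensin-converting enzyme measured with FAPGG as the substrate; in other assays of this panel Not Active means under 50% inhibition at 10 µM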
T3 sequence (P12822 whole entry): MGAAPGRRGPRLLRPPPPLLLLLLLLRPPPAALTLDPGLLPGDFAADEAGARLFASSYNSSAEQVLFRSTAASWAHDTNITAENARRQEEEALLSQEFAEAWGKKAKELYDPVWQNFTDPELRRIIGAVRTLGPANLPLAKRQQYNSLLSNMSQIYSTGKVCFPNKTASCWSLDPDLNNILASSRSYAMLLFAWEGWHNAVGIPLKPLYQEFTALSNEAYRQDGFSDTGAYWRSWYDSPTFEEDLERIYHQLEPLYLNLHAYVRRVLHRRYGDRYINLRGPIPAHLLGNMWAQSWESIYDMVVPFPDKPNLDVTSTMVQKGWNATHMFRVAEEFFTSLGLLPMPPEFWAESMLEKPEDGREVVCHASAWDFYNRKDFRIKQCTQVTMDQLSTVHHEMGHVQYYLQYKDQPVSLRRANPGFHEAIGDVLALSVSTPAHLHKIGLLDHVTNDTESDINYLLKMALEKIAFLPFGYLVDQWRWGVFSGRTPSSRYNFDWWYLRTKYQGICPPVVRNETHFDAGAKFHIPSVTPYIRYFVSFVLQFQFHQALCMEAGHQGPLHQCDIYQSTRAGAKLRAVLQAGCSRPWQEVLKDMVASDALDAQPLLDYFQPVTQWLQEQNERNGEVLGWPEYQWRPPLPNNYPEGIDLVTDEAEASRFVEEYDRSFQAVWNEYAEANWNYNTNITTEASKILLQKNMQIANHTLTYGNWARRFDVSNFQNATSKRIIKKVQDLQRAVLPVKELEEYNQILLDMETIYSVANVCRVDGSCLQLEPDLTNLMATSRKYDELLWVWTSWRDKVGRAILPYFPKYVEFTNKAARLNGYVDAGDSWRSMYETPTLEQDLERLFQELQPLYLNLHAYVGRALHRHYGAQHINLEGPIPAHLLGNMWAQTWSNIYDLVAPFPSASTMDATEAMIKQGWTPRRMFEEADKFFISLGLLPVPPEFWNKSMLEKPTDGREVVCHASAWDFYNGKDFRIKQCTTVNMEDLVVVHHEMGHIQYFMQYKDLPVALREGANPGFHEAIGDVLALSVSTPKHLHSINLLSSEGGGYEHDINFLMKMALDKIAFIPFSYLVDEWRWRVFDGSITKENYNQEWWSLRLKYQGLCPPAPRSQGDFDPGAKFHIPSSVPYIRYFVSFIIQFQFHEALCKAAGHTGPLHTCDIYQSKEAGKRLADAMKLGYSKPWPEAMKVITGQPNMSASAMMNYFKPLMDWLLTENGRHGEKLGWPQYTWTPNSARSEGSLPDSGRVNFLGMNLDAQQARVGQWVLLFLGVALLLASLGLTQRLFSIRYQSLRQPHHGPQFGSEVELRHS

Chain of Cannabinoid receptor 1 (P21554 whole entry): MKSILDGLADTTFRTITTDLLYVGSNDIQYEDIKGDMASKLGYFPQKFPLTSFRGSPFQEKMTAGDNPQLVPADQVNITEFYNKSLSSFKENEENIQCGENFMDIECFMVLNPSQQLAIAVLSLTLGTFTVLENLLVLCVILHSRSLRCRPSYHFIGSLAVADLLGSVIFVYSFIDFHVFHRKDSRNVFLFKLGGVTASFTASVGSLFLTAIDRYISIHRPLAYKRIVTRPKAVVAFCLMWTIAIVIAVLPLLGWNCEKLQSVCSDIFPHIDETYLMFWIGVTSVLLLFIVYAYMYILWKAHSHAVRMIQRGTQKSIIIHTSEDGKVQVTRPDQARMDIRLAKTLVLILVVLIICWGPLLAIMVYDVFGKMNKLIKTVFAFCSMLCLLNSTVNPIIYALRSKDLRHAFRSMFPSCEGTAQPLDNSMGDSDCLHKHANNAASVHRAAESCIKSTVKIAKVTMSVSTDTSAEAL
Chain of Epidermal growth factor receptor (P00533 whole entry): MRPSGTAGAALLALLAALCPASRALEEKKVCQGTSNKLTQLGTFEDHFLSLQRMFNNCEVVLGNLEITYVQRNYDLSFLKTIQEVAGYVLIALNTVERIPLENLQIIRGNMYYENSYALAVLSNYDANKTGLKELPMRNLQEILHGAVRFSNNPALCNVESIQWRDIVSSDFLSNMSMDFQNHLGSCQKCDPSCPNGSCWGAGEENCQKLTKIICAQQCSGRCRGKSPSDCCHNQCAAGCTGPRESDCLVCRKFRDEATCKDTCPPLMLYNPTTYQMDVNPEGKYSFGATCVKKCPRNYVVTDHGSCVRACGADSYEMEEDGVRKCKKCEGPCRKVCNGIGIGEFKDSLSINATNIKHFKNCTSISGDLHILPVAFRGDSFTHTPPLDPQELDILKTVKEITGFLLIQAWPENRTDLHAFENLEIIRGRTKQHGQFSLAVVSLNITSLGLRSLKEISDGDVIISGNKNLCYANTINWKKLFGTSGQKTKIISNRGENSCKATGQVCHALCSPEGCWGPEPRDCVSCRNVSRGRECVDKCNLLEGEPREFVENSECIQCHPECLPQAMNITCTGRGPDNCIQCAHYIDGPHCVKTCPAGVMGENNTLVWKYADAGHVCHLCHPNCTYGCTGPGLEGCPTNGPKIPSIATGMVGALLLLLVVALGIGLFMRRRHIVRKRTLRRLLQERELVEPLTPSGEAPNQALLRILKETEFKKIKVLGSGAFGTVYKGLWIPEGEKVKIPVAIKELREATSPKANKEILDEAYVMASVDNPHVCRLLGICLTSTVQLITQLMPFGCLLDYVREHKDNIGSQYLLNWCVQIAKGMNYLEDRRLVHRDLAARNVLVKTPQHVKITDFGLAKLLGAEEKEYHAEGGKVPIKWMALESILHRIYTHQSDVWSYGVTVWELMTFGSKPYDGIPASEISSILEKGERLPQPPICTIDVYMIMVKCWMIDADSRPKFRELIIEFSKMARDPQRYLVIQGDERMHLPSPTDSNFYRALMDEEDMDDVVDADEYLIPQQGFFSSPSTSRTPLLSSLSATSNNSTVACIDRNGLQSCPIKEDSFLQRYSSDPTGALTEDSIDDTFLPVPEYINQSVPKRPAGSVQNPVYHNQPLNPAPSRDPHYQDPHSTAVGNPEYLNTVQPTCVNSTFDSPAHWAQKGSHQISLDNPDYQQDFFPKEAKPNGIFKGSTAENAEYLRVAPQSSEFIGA

Compound	IC50 [1]	Ki [1]	IC50 [2]	Ki [2]	IC50 [3]	Ki [3]	IC50 (B2 bradykinin receptor)	IC50 [4]	Ki [4]	IC50 (Caspase-1)	IC50 [5]	IC50 (Cannabinoid receptor 1; chem-1)	IC50 [6]	IC50 ([1]; read-out: IC50) [µM]	Ki ([1]; read-out: Ki) [µM]	IC50 (Cannabinoid receptor 1; read-out: IC50) [µM]	Ki (Cannabinoid receptor 1; read-out: Ki) [µM]	IC50 ([2]; read-out: IC50) [µM]
CC1=C(CC(=O)O)c2cc(F)ccc2/C1=C\c1ccc([S+](C)[O-])cc1 (centres undefined)	Not Active	Not Active	Not Active	Not Active	Not Active	Not Active	Not Active	Not Active	Not Active	Not Active	Not Active	Not Active	Not Active	–	–	–	–	–
N[C@H](CSC(=S)NCc1ccccc1)C(=O)O	Not Active	Not Active	Not Active	Not Active	Not Active	Not Active	Not Active	Not Active	Not Active	Not Active	Not Active	Not Active	Not Active	–	–	–	–	–
CC(=O)N[C@@H]1[C@H](Oc2c3cc4cc2Oc2ccc(cc2Cl)[C@@H](O[C@@H]2O[C@@H](CO)[C@@H](O)[C@H](O)[C@@H]2NC(C)=O)[C@@H]2NC(=O)[C@H](NC(=O)[C@@H]4NC(=O)[C@H]4NC(=O)[C@@H](Cc5ccc(c(Cl)c5)O3)NC(=O)[C@H](N)c3ccc(O)c(c3)Oc3cc(O)cc4c3)c3ccc(O)c(c3)-c3c(O[C@H]4O[C@H](CO)[C@@H](O)[C@@H](O)[C@@H]4O)cc(O)cc3[C@@H](C(=O)O)NC2=O)O[C@@H](CO)[C@@H](O)[C@@H]1O	Not Active	Not Active	Not Active	Not Active	Not Active	Not Active	Not Active	Not Active	Not Active	Not Active	Not Active	Not Active	Not Active	–	–	–	–	–
Clc1ccc2c(c1)C(N1CCNCC1)=Nc1ccccc1O2 [AMOXAPINE]	–	–	–	–	–	–	Not Active	–	–	Not Active	Not Active	Not Active	Not Active	–	–	–	–	–
COc1cc2c(c(OC)c1OC)-c1ccc(OC)c(=O)cc1[C@@H](NC(C)=O)CC2 [COLCHICINE]	–	–	–	–	–	–	Not Active	–	–	Not Active	Not Active	Not Active	Not Active	–	–	–	–	–
CN1CCC(=C2c3ccccc3C=Cc3ccccc32)CC1 [CYPROHEPTADINE]	–	–	–	–	–	–	Not Active	–	–	Not Active	Not Active	Not Active	Not Active	–	–	–	–	–
CC/C(=C(/CC)c1ccc(O)cc1)c1ccc(O)cc1 [DIETHYLSTILBESTROL]	–	–	–	–	–	–	Not Active	–	–	Not Active	Not Active	Not Active	Not Active	–	–	–	–	–
CC(=O)N1CCN(c2ccc(OCC3COC(Cn4ccnc4)(c4ccc(Cl)cc4Cl)O3)cc2)CC1 (centres undefined) [KETOCONAZOLE]	–	–	Not Active	Not Active	Not Active	Not Active	Not Active	Not Active	Not Active	Not Active	Not Active	Not Active	Not Active	4.41	1.51	–	–	–
C=CCN1CC[C@]23c4c5ccc(O)c4O[C@H]2C(=O)CC[C@@]3(O)[C@H]1C5 [NALOXONE]	–	–	–	–	–	–	Not Active	–	–	Not Active	Not Active	Not Active	Not Active	–	–	–	–	–
COCCOC(=O)C1=C(C)NC(C)=C(C(=O)OC(C)C)C1c1cccc([N+](=O)[O-])c1 (centres undefined) [NIMODIPINE]	–	–	Not Active	Not Active	Not Active	Not Active	Not Active	Not Active	Not Active	Not Active	Not Active	–	Not Active	1.27	0.433	1.74	1.37	–
CC(C)NCC(O)COc1cccc2ccccc12 (centres undefined) [PROPRANOLOL]	–	–	–	–	–	–	Not Active	–	–	Not Active	Not Active	Not Active	Not Active	–	–	–	–	–
COCCCOc1ccnc(C[S+]([O-])c2nc3ccccc3[nH]2)c1C (centres undefined) [RABEPRAZOLE]	Not Active	Not Active	–	–	Not Active	Not Active	Not Active	Not Active	Not Active	Not Active	Not Active	Not Active	Not Active	–	–	–	–	2.29
O=C(c1ccc(OCCN2CCCCC2)cc1)c1c(-c2ccc(O)cc2)sc2cc(O)ccc12 [RALOXIFENE]	Not Active	Not Active	Not Active	Not Active	Not Active	Not Active	Not Active	Not Active	Not Active	Not Active	Not Active	Not Active	Not Active	–	–	–	–	–
CNC(=C[N+](=O)[O-])NCCSCc1ccc(CN(C)C)o1 [RANITIDINE]	Not Active	Not Active	Not Active	Not Active	Not Active	Not Active	Not Active	Not Active	Not Active	Not Active	Not Active	Not Active	Not Active	–	–	–	–	–
CO[C@H]1/C=C/O[C@@]2(C)Oc3c(C)c(O)c4c(c3C2=O)C2=NC3(CCN(CC(C)C)CC3)NC2=C(NC(=O)/C(C)=C\C=C\[C@H](C)[C@H](O)[C@@H](C)[C@@H](O)[C@@H](C)[C@H](OC(C)=O)[C@@H]1C)C4=O [RIFABUTIN]	Not Active	Not Active	Not Active	Not Active	Not Active	Not Active	Not Active	Not Active	Not Active	Not Active	Not Active	Not Active	Not Active	–	–	–	–	–
C[C@@H](N)[C@H]1CC[C@H](C(=O)Nc2ccncc2)CC1 [Y-27632]	Not Active	Not Active	Not Active	Not Active	Not Active	Not Active	Not Active	Not Active	Not Active	Not Active	–	Not Active	Not Active	–	–	–	–	–
